According to article PMC9126943, “ADAMTS4-specific MR probe to assess aortic aneurysms in vivo using synthetic peptide libraries” (Nature Communications, 2022):
Values joined by “and” are separate entries in the source; they are usually repeats but may differ in a detail not shown here. Identical values can stand only once. “Also recorded” adds a separate entry of the source. Where a SMILES comes first, the peptide text is derived from it. Bridges are numbered along the chain shown (N, C = ends). The star is where a group is joined. DOTA = O=C(O)CN1CCN(CC(=O)O)CCN(CC(=O)*)CCN(CC(=O)O)CC1

Columns and labels:
[1] = Metabolic stability in human plasma by HPLC; type: in vitro ADME; details: lyophilized human plasma 1 g in 10 ml water, 0.2 µm filtered; 8 mg probe in 2 ml plasma; 37 °C, 700 rpm; 5 min to 24 h; HPLC C18, absorbance 220 nm, blank subtracted
Experimental: 1 g of lyophilized human plasma was dissolved in 10 ml ultrapure water and mixed for 12 h at 4 °C. Afterward, the plasma was filtered with a pore size of 0.2 µm, and the filtrate was mixed for 1 h at 37 °C. 2 ml of plasma was mixed with 8 mg of the ADAMTS4-specific probe, while 2 ml plasma was kept blank. Both samples were shaken at 37 °C at 700 rpm. After different time points (5 min, 30 min, 45 min, 1 h, 2 h, […], 18 h, and 24 h) respectively, 200 µl of both samples were removed and 200 µl guanidium HCl (6 M, pH 3) was added to each sample and mixed for 30 min at RT. Afterward, 1 ml EtOH was added, and the samples were shaken at 4 °C for 48 h. The samples were centrifuged at 4 °C, 22640 x g for 15 min, and 1 ml of the supernatant was taken. The solvent was removed with the Speedvac (Martin Christ RVC 2-18 CDplus) at 37 °C. 250 µl ultrapure water + 0.2% TFA were added into each sample and shaken overnight. The samples were centrifuged at 4 °C, 22640 x g for 15 min, and 200 µl were transferred into MS vials. The samples were measured with an AdvanceBio Peptide Map column (C18; Core-shell; length 15 cm; ID 2.1 mm) on a 1260 Infinity Bioinert Quaternary LC System (Agilent Technologies). The following conditions were used: 2 µl injections volume, flowrate 0.4 ml/min, 0–30 min 99% A to 85% A (A: ultrapure water with 0.2% TFA; B ACN with 0.16% TFA). […]

[2] = biological target: T1, ADAMTS4 in the aneurysmal aortic wall of ApoE−/− mice (Mus musculus, UniProt Q8BNJ2); experiment: In vivo competition experiment
T1 construct: from tissue
T1 sequence (Q8BNJ2 209-833): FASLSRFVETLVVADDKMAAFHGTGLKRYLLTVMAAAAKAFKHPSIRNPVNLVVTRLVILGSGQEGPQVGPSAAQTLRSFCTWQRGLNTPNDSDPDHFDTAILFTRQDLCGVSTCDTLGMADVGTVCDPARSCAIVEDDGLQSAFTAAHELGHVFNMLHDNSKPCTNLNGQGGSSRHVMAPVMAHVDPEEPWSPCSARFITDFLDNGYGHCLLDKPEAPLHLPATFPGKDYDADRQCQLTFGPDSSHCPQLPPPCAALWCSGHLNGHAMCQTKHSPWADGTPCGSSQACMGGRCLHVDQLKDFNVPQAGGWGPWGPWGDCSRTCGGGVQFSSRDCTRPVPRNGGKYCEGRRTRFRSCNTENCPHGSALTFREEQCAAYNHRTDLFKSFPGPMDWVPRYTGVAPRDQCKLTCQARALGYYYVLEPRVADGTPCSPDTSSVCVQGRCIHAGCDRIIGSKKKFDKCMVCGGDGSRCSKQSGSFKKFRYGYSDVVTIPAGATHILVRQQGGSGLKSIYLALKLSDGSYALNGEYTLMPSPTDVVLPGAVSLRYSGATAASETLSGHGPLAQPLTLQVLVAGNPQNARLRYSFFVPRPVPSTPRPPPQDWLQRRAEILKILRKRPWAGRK
Experimental: An in vivo competition experiment was performed in 3 ApoE^−/− mice (n = 3) 4 weeks after AAA induction. On day 1, MR imaging was performed prior to and following the intravenous administration of the ADAMTS4-specific probe. On day 2, MRI was performed prior to and after the injection of a 7-fold higher dose of the non-paramagnetic europium-labeled ADAMTS4-specific probe. Then, a clinical dose of the ADAMST4 specific probe (0.13 mmol/kg) was administered with the following imaging after 20 min.
Analysis of resulting MR images was performed using OsiriX (version 7.1, OsiriX Foundation, Bernex, Switzerland). All morphometric measurements were conducted on high-resolution MRI images. In order to assess the signal intensities, regions of interest (ROIs) were measured as areas of signal enhancement, which were co-localized with areas of aneurysmal-aortic tissue. For these areas, the CNR was calculated using the following formula: CNR = (Combined vessel-wall and aneurysmal-aortic-tissue-signal − blood-signal)/standard-deviation-signal (noise). The signal of noise was defined as the standard deviation in pixel intensity from an ROI placed in the background air anterior to the aorta.

In the case of `N=C(N)NCCC[C@@H]1NC(=O)[C@H](CCCNC(=N)N)NC(=O)[C@H](CO)NC(=O)[C@@H](N)CSSC[C@@H](C(=O)N[C@@H](CO)C(=O)NCC(=O)NCC(=O)N[C@@H](CO)C(=O)NCC(=O)NCC(=O)N[C@@H](CCCCNC(=O)CN2CCN(CC(=O)O)CCN(CC(=O)O)CCN(CC(=O)O)CC2)C(=O)NCC(N)=O)NC(=O)CNC1=O` (Gd complex, metal not drawn) [ADAMTS4-specific probe] (H-CSRRGCSGGSGGK(DOTA)G-NH2; disulfide 1-6), the “degradation in human plasma within 24 h” value [1] is reported as “No relevant degradation; also recorded: No relevant biodegradation”, the “CNR d1 post, individual animals” value ([2]; day 1, Gd-labeled probe alone) is reported as 10.05 and 8.83 and 9.84 and the “CNR d2 post, individual animals” value ([2]; day 2, after 7-fold dose of Eu-labeled probe followed by Gd-labeled probe 0.13 mmol/kg) is reported as 5.81 and 4.92 and 5.19.
